Holding throughout (type): cell-based, human
One experiment concerns A375 cells. The experiment can be described thus: Proliferation inhibition, CellTiter-Glo, A375. To be noted: Table D-1, A375 (BRAF V600E), 3 days, read-out: Prolif. (proliferation EC50). As to the method: (§1) All cancer cell lines (A375, A101D, A2058, RKO, HT29 SK-MEL 30, IPC298, HepG2, HCT-116, Lovo, SW620, SW480, NCI-H358, NCI-H2122, Calu-6, NCIH2087, NCIH1755, NCIH1666 and Mewo) were obtained from ATCC and cultured in RPM1-1640 medium (Gibco) supplemented with 5% heat inactivated fetal bovine serum (FBS, Wisent) at 37° C. under 5% CO2. Cells were maintained in T175 flasks (Greiner). They were passaged by removing the culture medium, washing once in 10 mL of room temperature Phosphate Buffered Saline (PBS; Wisent) and incubating at 37° C. with 2 mL of 0.05% Trypsin (Thermo-Fisher). Trypsin was then inactivated by adding complete growth medium and the cells were then replated in a T175 culture dish at the appropriate dilution. All cell lines were routinely tested for mycoplasma contamination. Tissue type and mutational status of each cell line can be found in Table B.
(§2) CellTiter-Glo® viability analysis was conducted on cells plated in 100 μL of complete RPMI-1640 growth medium in 96-well flat-bottomed white opaque plates (Greiner or Croning) at a density indicated in Table E (for each CCL, number of cells plated per well of a 96-well plate to perform the CellTiter-Glo® cell viability assay). The cell density in cells/cm^2 would correspond to cell number divided by the area of one well of a 96-well plate (0.32 cm^2). […]
(§3) After 3 days of incubation, the growth media were removed by aspiration and 60 μL of diluted CellTiter-Glo® reagent (10 μL CellTiter-Glo® reagent+50 μL of PBS) was added to each well. […] Luminescence signals were then acquired on a Synergy Neo2 plate reader (Biotek).
(§4) The effect of each compound dilution on the proliferation of cancer cell lines was expressed in % inhibition and calculated as follows. […]
(§5) The ability of each compound to inhibit proliferation was expressed as a EC50 value obtained by plotting the effect values for each data point of a dilution series and fitting the obtained curves using a log(agonist) versus response—variable slope (four parameters) function using GraphPadPrism (V7.0) or Dotmatics Screening Ultra platform.
On the technique in general: ATP-based viability assays read luminescence as a measure of living cells.

A further experiment deals with SK-MEL30 cells. The experiment can be described thus: Proliferation inhibition, CellTiter-Glo, SK-MEL30. To be noted: Table D-1, SK-MEL30 (NRAS-Q61K), 3 days, read-out: Prolif. (proliferation EC50). As to the method: as §1, §2, §3, §4, §5
Another experiment relates to pERK, Calu6 cells. The experiment can be described thus: Phospho-ERK inhibition, AlphaLISA p-ERK 1/2, Calu-6. The following applies: Table D-2; for IC50: Calu6 (KRAS Q61K); for pERK value in parentheses, % inhibition (Ymin): Calu6, lowest point of IC50 curve. As to the method: as §1
(c) Measurement of Phospho-ERK Inhibition in Cultivated Human Cancer Cell Lines by the AlphaLISA® SureFire® Ultra™ p-ERK 1/2 (Thr2O2/Tyr204)
AlphaLISA® SureFire® Ultra™ p-ERK 1/2 (Thr202/Tyr204) analysis was conducted on cells plated in 100 μL of complete RPMI-1640 growth medium in 96-well flat-bottomed transparent dishes (Costar) at a density indicated in Table C. Cells were maintained overnight at 37° C. under 5% CO2 before treatment with compounds' dilution series for one hour. The cell density in cells/cm^2 corresponds to cell number divided by the area of one well of a 96-well plate (0.143 cm^2).
In a dilution series 100 μL/well of test substance dilution prepared in complete RPMI-1640 growth media was added to the cells. The dilution series is selected so that ten concentrations cover a range from 10 μM to 0.33 nM. If necessary, the initial concentration of 10 μM is increased to 100 μM or lowered to 1 μM (as in the case of A375 and H1666 cells, which are generally more sensitive to the compounds) and further dilution is carried out accordingly. The final concentration of DMSO in the assay is set at 0.5%.
After treatment, media was removed, and cells were lysed in 50 μL of 1× AlphaScreen Ultra Lysis Buffer (Perkin Elmer). The AlphaLISA® SureFire® Ultra™ p-ERK 1/2 (Thr202/Tyr204) (PerkinElmer) reactions were performed with 5 μL of cell lysate according to the manufacturer's specifications in 384-well proxyplates (Perkin Elmer) followed by overnight incubation of the reactions at room temperature in a humidified chamber. After completion of the reactions, the signals were recorded on an EnVision plate reader (Perkin Elmer) using built in AlphaLISA® settings.
The effect of each compound dilution on the pERK signal was expressed in % inhibition and calculated as follows. An internal 100% inhibition control (1 μM trametinib, cat. No. HY-10999; MedChem Express; CAS No. 871700-17-3) was included in each plate and used as a measure of pERK background. First, the value obtained for trametinib was subtracted from each data point. The average of DMSO (vehicle) controls (set as 0% inhibition) was established and used to calculate % inhibition:
The ability of each compound to inhibit pERK signal was expressed as an IC50 value obtained by plotting the inhibition values for each data point of a dilution series and fitting the obtained curves using a log(agonist) versus response—variable slope (four parameters) function using GraphPadPrism (V7.0) or Dotmatics Screening Ultra platform.
When present, paradoxical pERK induction is inferred from the negative % inhibition values observed in the pERK IC50 curves of a compound.
On the technique in general: Bead proximity is the source of the signal in Alpha formats.

The next experiment concerns HT-29 cells. Kind of experiment: Proliferation inhibition, CellTiter-Glo, HT-29. To be noted: Table D-1, HT-29 (BRAF V600E), 3 days, read-out: Prolif. (proliferation EC50). As for the experimental part: as §1, §2, §3, §4, §5
The next experiment has as its system IPC298 cells. Kind of experiment: Proliferation inhibition, CellTiter-Glo, IPC298. To be noted: Table D-1, IPC298 (NRAS-Q61L), 3 days, read-out: Prolif. (proliferation EC50). As to the method: as §1, §2, §3, §4, §5

As usually defined, the IC50 is the concentration at which inhibition is half-maximal. Read a low IC50 as greater potency.

Like-named read-outs stand apart in the source and are kept apart here. Bounds are passed on as bounds.

For `Cc1ccc2c(Nc3cccc(Cl)c3F)nccc2c1NC(=O)c1csc2c(N)ncnc12` [Belvarafenib, reference compound], the EC50 was less than 0.3 µM in the experiment with A375 cells (Homo sapiens, A-375, 72 h); less than 0.3 µM in the experiment on SK-MEL30 cells (Homo sapiens, SK-MEL-30, 72 h); less than 0.3 µM in the experiment on HT-29 cells (Homo sapiens, 72 h); less than 0.3 µM with IPC298 cells (Homo sapiens, IPC-298, 72 h). Besides, in the experiment with pERK, Calu6 cells (Homo sapiens, Calu-6), the IC50 lay within 0.03 to 0.3 µM. Besides, the “pERK value in parentheses, % inhibition (Ymin)” value (“pERK value … % inhibition (Ymin)” below) in the experiment on pERK, Calu6 cells was “(−39) %”.

For the compound `Cc1c(F)cccc1S(=O)(=O)Nc1ccc(F)c(Nc2ncnc3sc(-n4cc(C(=O)N5C6CCC5CN(C)C6)c5ccccc54)nc23)c1F` [Example 44], the EC50 in the experiment on A375 cells, with SK-MEL30 cells, in the experiment with HT-29 cells and in the experiment with IPC298 cells was less than 0.3 µM in each case. The compound further came in with an IC50 with pERK, Calu6 cells of less than 0.03 µM. Also, in the experiment on pERK, Calu6 cells, the “pERK value … % inhibition (Ymin)” value is given as “(−12) %”.

In the case of `N#CC1(c2cccc3c2ncn3-c2nc3c(Nc4c(F)ccc(NS(=O)(=O)c5cccc(Cl)c5Cl)c4F)ncnc3s2)CC1` [Example 122], the EC50 in the experiment with A375 cells, with SK-MEL30 cells, in the experiment on HT-29 cells and with IPC298 cells was less than 0.3 µM throughout. The compound further gave an IC50 in the experiment on pERK, Calu6 cells of 0.03 to 0.3 µM. Besides, in the experiment with pERK, Calu6 cells, the “pERK value … % inhibition (Ymin)” value is “(−8) %”.

Source of the values: patent US20260137697A1, “THIAZOLO[5,4-D]PYRIMIDINE COMPOUNDS, COMPOSITIONS COMPRISING THEM AND USES THEREOF” (University de Montreal, priority 2022, published 2026).
